Source: US20260171190A1, “ASSESSMENT OF GR CELLULAR SIGNALING PATHWAY ACTIVITY USING MATHEMATICAL MODELLING OF TARGET GENE EXPRESSION” (priority 2021, published 2026)
Where two headings read alike, the source gives them in different places.

Test system: GR cellular signaling pathway
Procedure: Triple Negative Breast cancer cell line (MDA-MB-231) treated for 4, 8, 12 hrs with vehicle, 100 nM dexamethasone, 100 nM dexamethasone and 100 nM mifrepristone (GCR antagonist), or 100 nM dexamethasone and 100 nM CORT108297 (GCR antagonist).
GR pathway activity scores are presented on a normalized 0-100 scale.

Row | Compound | antagonism of the dexamethasone effect on GR pathway activity | antagonism of the dexamethasone effect on GR pathway activity (MDA-MB-231, 100 nM dexamethasone and 100 nM antagonist, 4, 8, 12 hrs)
1 | CC#C[C@]1(O)CC[C@H]2[C@@H]3CCC4=CC(=O)CCC4=C3[C@@H](c3ccc(N(C)C)cc3)C[C@@]21C [Mifrepristone] | strong dexamethasone antagonist | 
2 | CCOC[C@]12Cc3cnn(-c4ccc(F)cc4)c3C=C1CCN(S(=O)(=O)c1ccc(C(F)(F)F)cc1)C2 [CORT108297] |  | minimally effective
